The values below are quoted from earlier work in US8940506B2, “High-sensitive fluorescent energy transfer assay using fluoresent amino acids and fluorescent proteins” (The Regents of the University of California, priority 2008, dated 2015).

This data set concerns cancer cells. The conditions noted are these: by disrupting the interaction of ubiquitin E3 ligase MDM2 and its substrate p53.

`COc1ccc(C2=N[C@@H](c3ccc(Cl)cc3)[C@@H](c3ccc(Cl)cc3)N2C(=O)N2CCNC(=O)C2)c(OC(C)C)c1` [Nutlin-3]: the “apoptosis and growth inhibition of cancer cells” value was “induce apoptosis and growth inhibition of cancer cells”.
